In BindingDB's records for patent US20250221979 (Shouyao Holdings (Beijing) Co., 2025):

Target: S-adenosylmethionine synthase isoform type-2 (Homo sapiens, UniProt P31153)
Experiment: In Vitro Enzymatic Inhibition Activity Assay
Procedure: Enzymatic activity assays of compounds of this patent against MAT2A (to detect half inhibitory concentration IC50 values of the compounds) were performed using the phosphate detection kit PiColorLockTM (ab270004, purchased from Abcam). This method utilized the principle that purified human MAT2A enzyme catalyzes the formation of S-adenosylmethionine (SAM) from L-methionine and ATP to release free phosphate, and used the spectrophotometric method to quantify phosphate, so as to determine the enzymatic activity of MAT2A. Compounds were diluted in a 10-fold gradient starting at 1 mM with 100% DMSO (for a total of 8 concentrations) and 2 μL of each concentration was added to 48 μL of reaction buffer (50 mM Tris-HCl PH 7.5, 50 mM KCl, 10 mM MgCl2, 0.01% Brij-35, 0.01% BSA, 1 mM DTT) and mixed well. The final diluted compound was prepared, and 5 μL of MAT2A enzyme (final concentration of 10 nM), 5 μL of ATP (final concentration of 50 μM), and 5 μL of L-methionine (final concentration of 100 μM) were added to each well of a 384-well plate (#3701, purchased from CORNING). After the 384-well plate was placed in the incubator at 23° C. for 6 h, 5 μL of PiColorLock reagent diluted Accelerator (dilution ratio 1:100) was added to each well, and the reaction was stopped by incubating in the incubator at 23° C. for 5 min. 2 μL of Stabiliser was added, the absorbance was read at 630 nm on BMG CLARIOstar, and the IC50 value of the compound was calculated by using GraphPad Prism software.

S-adenosylmethionine synthase isoform type-2, sequence (P31153 whole entry, canonical isoform): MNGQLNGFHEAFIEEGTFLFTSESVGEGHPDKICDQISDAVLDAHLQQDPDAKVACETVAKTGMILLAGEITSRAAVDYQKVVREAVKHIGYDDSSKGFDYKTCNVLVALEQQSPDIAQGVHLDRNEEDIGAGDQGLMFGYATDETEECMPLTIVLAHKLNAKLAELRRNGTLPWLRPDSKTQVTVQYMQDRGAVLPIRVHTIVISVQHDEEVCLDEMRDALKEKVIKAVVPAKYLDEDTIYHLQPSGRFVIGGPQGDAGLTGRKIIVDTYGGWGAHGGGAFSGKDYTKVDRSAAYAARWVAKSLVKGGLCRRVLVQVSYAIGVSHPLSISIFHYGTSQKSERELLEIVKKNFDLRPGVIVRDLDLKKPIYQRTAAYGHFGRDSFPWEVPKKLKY

| IC50 [nM] | SMILES |
| --- | --- |
| 1.19 | COC(=O)c1c(N)c2ncc(C3CC3)nc2n(-c2ccc(C(C)O)cc2)c1=O (stereo not drawn) [US20250221979, Example 356] |
| 1.19 | COC(=O)c1c(N)c2ccc(OC(F)F)cc2n(-c2ccc(N)cc2)c1=O [US20250221979, Example 320] |
| 1.96 | COC(=O)c1c(N)c2ccc(OC(F)F)nc2n(-c2ccc([C@@H](C)O)cc2)c1=O [US20250221979, Example 372] |
